Experimental data as given in patent US20070049593A1 (priority 2004, published 2007).
Where a name gives a salt, the structure may show the parent alone.

molecular target: T1, HCV polymerase (Hepatitis C virus genotype 1b, UniProt P26663); assay: biochemical; parameters: species or system HCV BK strain; conditions: not given
T1 construct: a region encoding NS5B (J Virol 1991 March, 65(3), 1105-13, 544 amino acids after deletion of 47 amino acids on the C-terminal); 6xHis (C); made in house; host or cells: Escherichia coli
T1 sequence (P26663 2420-2963): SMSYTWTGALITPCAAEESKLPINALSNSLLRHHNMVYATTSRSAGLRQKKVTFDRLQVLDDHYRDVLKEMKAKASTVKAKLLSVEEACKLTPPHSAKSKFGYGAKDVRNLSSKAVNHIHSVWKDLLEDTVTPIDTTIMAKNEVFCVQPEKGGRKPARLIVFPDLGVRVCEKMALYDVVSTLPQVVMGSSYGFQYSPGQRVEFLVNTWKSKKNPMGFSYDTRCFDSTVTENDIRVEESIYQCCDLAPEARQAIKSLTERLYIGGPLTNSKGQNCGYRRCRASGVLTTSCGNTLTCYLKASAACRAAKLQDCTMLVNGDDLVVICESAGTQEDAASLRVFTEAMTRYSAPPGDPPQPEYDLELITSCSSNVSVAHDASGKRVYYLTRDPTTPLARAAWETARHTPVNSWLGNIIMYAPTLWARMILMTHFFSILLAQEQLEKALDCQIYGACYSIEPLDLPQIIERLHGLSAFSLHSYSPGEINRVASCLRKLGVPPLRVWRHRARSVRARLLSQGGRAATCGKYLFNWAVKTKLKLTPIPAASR
Procedure, shortened: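 Recombinant HCV BK-strain NS5B (C-terminal 47 aa deleted, His6-tagged, E. coli), 0.5 μg/ml, run with 5 μg/ml in vitro-transcribed RNA template (polyU/3′X), ATP/GTP/CTP 50 μM, UTP 2 μM plus [3H]UTP, pH 7.5, 25° C, 90 min. TCA-precipitated RNA counted by scintillation; IC50 from activity with vs without compound.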

Compound	IC50
COc1ccc2c(c1)OCCn1c-2c(C2CCCCC2)c2ccc(C(=O)NC3(C(=O)Nc4ccc(/C(C)=C/C(=O)O)cc4)CCC3)cc21 [Example 2-529, (E)-3-[4-({1-[(12-cyclohexyl-3-methoxy-6,7-dihydro-5-oxa-7a-azadibenzo[a,e]azulene-9-carbonyl)amino]cyclobutanecarbonyl}amino)phenyl]but-2-enoic acid]	< 100 nM
COc1ccc2c(c1)OCCn1c-2c(C2CCCCC2)c2ccc(C(=O)NC3(C(=O)Nc4ccc(/C=C/C(=O)O)cc4OCCOCc4ccccc4)CCC3)cc21 [Example 2-530, (E)-3-[3-(2-benzyloxyethoxy)-4-({1-[(12-cyclohexyl-3-methoxy-6,7-dihydro-5-oxa-7a-azadibenzo[a,e]azulene-9-carbonyl)amino]cyclobutanecarbonyl}amino)phenyl]acrylic acid]	< 100 nM
COc1ccc2c(c1)OCCn1c-2c(C2CCCCC2)c2ccc(C(=O)NC3(C(=O)Nc4ccc(/C=C/C(=O)O)c(OC)c4)CCC3)cc21 [Example 2-531, (E)-3-[4-({1-[(12-cyclohexyl-3-methoxy-6,7-dihydro-5-oxa-7a-azadibenzo[a,e]azulene-9-carbonyl)amino]cyclobutanecarbonyl}amino)-2-methoxyphenyl]acrylic acid]	< 100 nM
COC[C@](C)(NC(=O)c1ccc2c(C3CCCCC3)c3n(c2c1)CCOc1cc(OC)ccc1-3)C(=O)O [Example 2-532, (S)-2-[(12-cyclohexyl-3-methoxy-6,7-dihydro-5-oxa-7a-azadibenzo[a,e]azulene-9-carbonyl)amino]-3-methoxy-2-methylpropionic acid]	< 100 nM
CCn1c([C@H](Cc2ccc(O)cc2)NC(=O)c2ccc3c(C4CCCCC4)c4n(c3c2)CCOc2cc(OC)ccc2-4)n[nH]c1=O [Example 2-533, N—[(S)-1-(4-ethyl-5-oxo-4,5-dihydro-1H-1,2,4-triazol-3-yl)-2-(4-hydroxyphenyl)ethyl]-12-cyclohexyl-3-methoxy-6,7-dihydro-5-oxa-7a-azadibenzo[a,e]azulene-9-carboxamide]	< 100 nM
O=C(O)c1ccc2c(C3CCCCC3)c3n(c2c1)CCOc1c(-c2ccccc2/C=C/C(=O)N2CCCCC2)cccc1-3 [Example 2-534, 12-cyclohexyl-4-{2-[(E)-3-oxo-3-(piperidin-1-yl)propenyl]phenyl}-6,7-dihydro-5-oxa-7a-azadibenzo[a,e]azulene-9-carboxylic acid]	< 100 nM
O=C(O)c1ccc2c(C3CCCCC3)c3n(c2c1)CCOc1c(-c2ccccc2CCC(=O)N2CCCCC2)cccc1-3 [Example 2-535, 12-cyclohexyl-4-{2-[3-oxo-3-(piperidin-1-yl)propyl]phenyl}-6,7-dihydro-5-oxa-7a-azadibenzo[a,e]azulene-9-carboxylic acid]	< 100 nM
O=C(O)c1ccc2c(C3CCCCC3)c3n(c2c1)CCOc1c(-c2ccccc2CCCN2CCCCC2)cccc1-3 [Example 2-536, 12-cyclohexyl-4-{2-[3-(piperidin-1-yl)propyl]phenyl}-6,7-dihydro-5-oxa-7a-azadibenzo[a,e]azulene-9-carboxylic acid monohydrochloride]	< 100 nM
COC[C@](C)(NC(=O)c1ccc2c(C3CCCCC3)c3n(c2c1)CCOc1cc(OC)ccc1-3)C(=O)Nc1ccc(/C=C/C(=O)O)cc1 [Example 2-537, (E)-3-{4-((S)-2-[(12-cyclohexyl-3-methoxy-6,7-dihydro-5-oxa-7a-azadibenzo[a,e]azulene-9-carbonyl)amino]-3-methoxy-2-methylpropionylamino}phenyl)acrylic acid]	< 100 nM
COc1ccc2c(c1)OCCn1c-2c(C2CCCCC2)c2ccc(C(=O)N[C@@H](Cc3ccc(OCc4ccccc4)cc3)C3OCCO3)cc21 [Example 2-538, N—[(S)-2-(4-benzyloxyphenyl)-1-(1,3-dioxolan-2-yl)ethyl]-12-cyclohexyl-3-methoxy-6,7-dihydro-5-oxa-7a-azadibenzo[a,e]azulene-9-carboxamide]	< 100 nM
CC[N+](CC)(CC)Cc1ccc(CC(NC(=O)c2ccc3c(C4CCCCC4)c4n(c3c2)CCOc2cc(OC)ccc2-4)C(=O)OC)cc1 (stereo not drawn) [Example 2-539, N-(4-{2-[(12-cyclohexyl-3-methoxy-6,7-dihydro-5-oxa-7a-azadibenzo[a,e]azulene-9-carbonyl)amino]-2-(methoxycarbonyl)ethyl}benzyl)-N,N,N-triethylammonium chloride]	< 100 nM
COc1ccc2c(c1)OCCn1c-2c(C2CCCCC2)c2ccc(C(=O)NC3(C(=O)Nc4ccc5oc(=O)ccc5c4)CCC3)cc21 [Example 2-541, N-[1-(2-oxo-2H-chromen-6-ylcarbamoyl)cyclobutyl]-12-cyclohexyl-3-methoxy-6,7-dihydro-5-oxa-7a-azadibenzo[a,e]azulene-9-carboxamide]	< 100 nM
COc1ccc2c(c1)OCCn1c-2c(C2CCCCC2)c2ccc(C(=O)N[C@@H](Cc3ccc(OCc4ccccc4)cc3)c3noc(C)n3)cc21 [Example 2-542, N—[(S)-2-(4-benzyloxyphenyl)-1-(5-methyl-1,2,4-oxadiazol-3-yl)ethyl]-12-cyclohexyl-3-methoxy-6,7-dihydro-5-oxa-7a-azadibenzo[a,e]azulene-9-carboxamide]	< 100 nM
COc1ccc2c(c1)OCCn1c-2c(C2CCCCC2)c2ccc(C(=O)NC3(C(=O)Nc4ccc(/C=C/C(N)=O)cc4)CCC3)cc21 [Example 2-543, N-{1-[4-((E)-2-carbamoylvinyl)phenylcarbamoyl]cyclobutyl}-12-cyclohexyl-3-methoxy-6,7-dihydro-5-oxa-7a-azadibenzo[a,e]azulene-9-carboxamide]	< 100 nM
CNC(=O)/C=C/c1ccc(NC(=O)C2(NC(=O)c3ccc4c(C5CCCCC5)c5n(c4c3)CCOc3cc(OC)ccc3-5)CCC2)cc1 [Example 2-544, N-{1-[4-((E)-2-methylcarbamoylvinyl)phenylcarbamoyl]cyclobutyl}-12-cyclohexyl-3-methoxy-6,7-dihydro-5-oxa-7a-azadibenzo[a,e]azulene-9-carboxamide]	< 100 nM
COc1ccc2c(c1)OCCn1c-2c(C2CCCCC2)c2ccc(C(=O)NC(C)(C)c3ncc(-c4ccc(CO)cc4)[nH]3)cc21 [Example 2-545, N-{1-[5-(4-hydroxymethylphenyl)-1H-imidazol-2-yl]-1-methylethyl}-12-cyclohexyl-3-methoxy-6,7-dihydro-5-oxa-7a-azadibenzo[a,e]azulene-9-carboxamide]	< 100 nM
COc1ccc2c(c1)OCCn1c-2c(C2CCCCC2)c2ccc(C(=O)NC(C)(C)c3ncc(-c4ccc(C(N)=O)cc4)[nH]3)cc21 [Example 2-546, N-{1-[5-(4-carbamoylphenyl)-1H-imidazol-2-yl]-1-methylethyl}-12-cyclohexyl-3-methoxy-6,7-dihydro-5-oxa-7a-azadibenzo[a,e]azulene-9-carboxamide]	< 100 nM
CNC(=O)c1ccc(-c2cnc(C(C)(C)NC(=O)c3ccc4c(C5CCCCC5)c5n(c4c3)CCOc3cc(OC)ccc3-5)[nH]2)cc1 [Example 2-547, N-{1-methyl-1-[5-(4-methylcarbamoylphenyl)-1H-imidazol-2-yl]ethyl}-12-cyclohexyl-3-methoxy-6,7-dihydro-5-oxa-7a-azadibenzo[a,e]azulene-9-carboxamide]	< 100 nM
COc1ccc2c(c1)OCCn1c-2c(C2CCCCC2)c2ccc(C(=O)NC(C)(C)c3ncc(-c4ccc(/C=C/C(=O)O)cc4)[nH]3)cc21 [Example 2-548, (E)-3-[4-(2-{1-[(12-cyclohexyl-3-methoxy-6,7-dihydro-5-oxa-7a-azadibenzo[a,e]azulene-9-carbonyl)amino]-1-methylethyl}-3H-imidazol-4-yl)phenyl]acrylic acid]	< 100 nM
O=C(CN1CCCCC1)Nc1ccccc1-c1cccc2c1OCCn1c-2c(C2CCCCC2)c2ccc(C(=O)O)cc21 [Example 2-549, 12-cyclohexyl-4-{2-[2-(piperidin-1-yl)acetylamino]phenyl}-6,7-dihydro-5-oxa-7a-azadibenzo[a,e]azulene-9-carboxylic acid]	< 100 nM
COc1ccc2c(c1)OCCn1c-2c(C2CCCCC2)c2ccc(C(=O)NC3(C(=O)Nc4cccc(/C=C/C(=O)O)c4)CCC3)cc21 [Example 2-550, (E)-3-[3-({1-[(12-cyclohexyl-3-methoxy-6,7-dihydro-5-oxa-7a-azadibenzo[a,e]azulene-9-carbonyl)amino]cyclobutanecarbonyl}amino)phenyl]acrylic acid]	< 100 nM
CCOc1ccc2c(c1)OCCn1c-2c(C2CCCCC2)c2ccc(C(=O)NC3(C(=O)Nc4cccc(/C=C/C(=O)O)c4)CCC3)cc21 [Example 2-551, (E)-3-[3-({1-[(12-cyclohexyl-3-ethoxy-6,7-dihydro-5-oxa-7a-azadibenzo[a,e]azulene-9-carbonyl)amino]cyclobutanecarbonyl}amino)phenyl]acrylic acid]	< 100 nM
CCOc1ccc2c(c1)OCCn1c-2c(C2CCCCC2)c2ccc(C(=O)NC3(C(=O)Nc4ccc(/C=C/C(=O)O)cc4OC)CCC3)cc21 [Example 2-552, (E)-3-[4-({1-[(12-cyclohexyl-3-ethoxy-6,7-dihydro-5-oxa-7a-azadibenzo[a,e]azulene-9-carbonyl)amino]cyclobutanecarbonyl}amino)-3-methoxyphenyl]acrylic acid]	< 100 nM

same assay, conditions: read-out: HCV polymerase inhibitory activity IC50; 25° C., 90 min; [5,6-3H]UTP incorporation into RNA

Compound	IC50
COc1ccc2c(c1)OCCn1c-2c(C2CCCCC2)c2ccc(C(=O)NC(C)(C)c3ncc(-c4ccc(C(=O)O)cc4)[nH]3)cc21 [Example 2-540, 4-(2-{1-[(12-cyclohexyl-3-methoxy-6,7-dihydro-5-oxa-7a-azadibenzo[a,e]azulene-9-carbonyl)amino]-1-methylethyl}-3H-imidazol-4-yl)benzoic acid monohydrochloride]	< 100 nM
